# Laboratory results: patent publication US8258115B2, “Stable salts of S-adenosylmethionine and process for the preparation thereof” (priority 2007, dated 2012)
# Tests used:
# Assay type in all cases: physicochemical
# [1] = Stability test in thermostated heaters at 40° C. and 75% R.H., active ingredient %; conditions: heat-sealed aluminium/aluminium bags
# Description: (§1) In the following Tables 2-13, the percentage values are repotted which were obtained in the stability tests carried out on the products of examples 1-6. The stability tests were carried out in thermostated heaters at 40° C. and 75% R.H (tables 2-7) as well as 25° C. and 60% R.H. (tables 8-13), preserving the samples in heat-sealed aluminium/aluminium bags according to the following criteria: the active ingredient % was determined for every sampling point taken under consideration.
# [2] = Degradation of the active stereoisomer S,S at 25° C. and 65% R.H.
# Description: (§2) In the following Tables 14-25, the percentage values are reported of the degradation of the active stereoisomer S,S calculated at 40° C. and 75% R.H. (Tables 14-19) and at 25° C. and 65% R.H.
# [3] = Stability test in thermostated heaters at 25° C. and 60% R.H., active ingredient %; conditions: heat-sealed aluminium/aluminium bags
# Description: as §1
# [4] = Degradation of the active stereoisomer S,S at 40° C. and 75% R.H.
# Description: as §2
# [5] = Moisture % K.F. of the stability samples; conditions: sample used in the stability test
# Description: as §1, with “the active ingredient % was determined for every sampling point taken under consideration.” left out
SMILES,"stability test percentage value (active ingredient %), 30 days [1] [%]","stability test percentage value (active ingredient %), 60 days [1] [%]","stability test percentage value (active ingredient %), 90 days [1] [%]","stability test percentage value (active ingredient %), 120 days [1] [%]","stability test percentage value (active ingredient %), 180 days [1] [%]","percentage of the active S,S stereoisomer remaining ([2]; 30 days) [%]","percentage of the active S,S stereoisomer remaining ([2]; 90 days) [%]","percentage of the active S,S stereoisomer remaining ([2]; 180 days) [%]","percentage of the active S,S stereoisomer remaining ([2]; 360 days) [%]","percentage of the active S,S stereoisomer remaining ([2]; 720 days) [%]","percentage of the active S,S stereoisomer remaining ([2]; T = 0) [%]","stability test percentage value (active ingredient %), 30 days [3] [%]","stability test percentage value (active ingredient %), 90 days [3] [%]","stability test percentage value (active ingredient %), 180 days [3] [%]","stability test percentage value (active ingredient %), 360 days [3] [%]","stability test percentage value (active ingredient %), 720 days [3] [%]","percentage of active S,S stereoisomer remaining ([4]; 30 days) [%]","percentage of active S,S stereoisomer remaining ([4]; 60 days) [%]","percentage of active S,S stereoisomer remaining ([4]; 90 days) [%]","percentage of active S,S stereoisomer remaining ([4]; 120 days) [%]",other results
C[S+](CCC(N)C(=O)[O-])C[C@H]1O[C@@H](n2cnc3c(N)ncnc32)[C@H](O)[C@@H]1O.C[S+](CCC(N)C(=O)[O-])C[C@H]1O[C@@H](n2cnc3c(N)ncnc32)[C@H](O)[C@@H]1O.Cl.[Cl-].[Cl-].[Mg+2] (stereo partly drawn) [SAMe•0.5HCl•0.5MgCl2],0.56,0.87,1.45,1.99,2.67,96.5,94.8,93.7,92.6,89.5,98.9,0.35,0.43,0.76,0.90,1.07,92.5,89.8,84.5,82.6,"percentage of active S,S stereoisomer remaining ([4]; 180 days): 76.6%; percentage of active S,S stereoisomer remaining ([4]; T = 0): 98.9%; Moisture % K.F. [5]: 0.54%"
C[S+](CCC(N)C(=O)[O-])C[C@H]1O[C@@H](n2cnc3c(N)ncnc32)[C@H](O)[C@@H]1O.Cl.Cl.[Cl-].[Cl-].[Mg+2] (stereo partly drawn) [SAMe•2.0HCl•1.0MgCl2],0.27,0.45,1.14,1.45,1.89,96.6,95.7,94.7,92.5,88.0,97.4,0.17,0.37,0.58,0.74,0.98,92.9,87.8,83.4,82.1,"percentage of active S,S stereoisomer remaining ([4]; 180 days): 78.2%; percentage of active S,S stereoisomer remaining ([4]; T = 0): 97.4%; Moisture % K.F. [5]: 0.44%"
C[S+](CCC(N)C(=O)[O-])C[C@H]1O[C@@H](n2cnc3c(N)ncnc32)[C@H](O)[C@@H]1O.O=S(=O)(O)O.O=S(=O)(O)O.O=S(=O)([O-])[O-].[Mg+2] (stereo partly drawn) [SAMe•2.0H2SO4•1.0Mg2SO4•0.4H2O],0.33,0.44,0.61,1.02,1.59,97.3,96.4,94.1,91.3,89.8,97.5,0.14,0.28,0.45,0.69,0.92,91.3,89.4,84.1,81.3,"percentage of active S,S stereoisomer remaining ([4]; 180 days): 75.8%; percentage of active S,S stereoisomer remaining ([4]; T = 0): 97.5%; Moisture % K.F. [5]: 0.34%"
C[S+](CCC(N)C(=O)[O-])C[C@H]1O[C@@H](n2cnc3c(N)ncnc32)[C@H](O)[C@@H]1O.C[S+](CCC(N)C(=O)[O-])C[C@H]1O[C@@H](n2cnc3c(N)ncnc32)[C@H](O)[C@@H]1O.O=S(=O)(O)O.[Ca+2].[Cl-].[Cl-] (stereo partly drawn) [SAMe•0.5H2SO4•0.5CaCl2],0.48,0.76,1.48,1.98,3.99,97.8,96.7,93.6,90.8,88.6,98.2,0.23,0.35,0.57,0.78,0.99,89.8,86.8,83.6,80.6,"percentage of active S,S stereoisomer remaining ([4]; 180 days): 77.6%; percentage of active S,S stereoisomer remaining ([4]; T = 0): 98.2%; Moisture % K.F. [5]: 0.23%"
C[S+](CCC(N)C(=O)[O-])C[C@H]1O[C@@H](n2cnc3c(N)ncnc32)[C@H](O)[C@@H]1O.Cl.Cl.O=S(=O)([O-])[O-].[Mg+2] (stereo partly drawn) [SAMe•2.0HCl•1.0MgSO4],0.27,0.49,0.67,1.46,1.62,86.5,95.6,93.0,91.1,88.2,98.0,0.19,0.28,0.41,0.65,0.87,89.9,87.9,83.0,79.1,"percentage of active S,S stereoisomer remaining ([4]; 180 days): 73.3%; percentage of active S,S stereoisomer remaining ([4]; T = 0): 98.0%; Moisture % K.F. [5]: 0.52%"
C[S+](CCC(N)C(=O)[O-])C[C@H]1O[C@@H](n2cnc3c(N)ncnc32)[C@H](O)[C@@H]1O.C[S+](CCC(N)C(=O)[O-])C[C@H]1O[C@@H](n2cnc3c(N)ncnc32)[C@H](O)[C@@H]1O.O=S(=O)(O)O.[Cl-].[Cl-].[Mg+2] (stereo partly drawn) [SAMe•0.5H2SO4•0.5MgCl2],0.36,0.70,1.16,1.66,2.45,97.8,96.8,93.6,90.6,87.6,98.2,0.12,0.25,0.35,0.57,0.79,89.8,86.8,83.6,80.6,"percentage of active S,S stereoisomer remaining ([4]; 180 days): 77.6%; percentage of active S,S stereoisomer remaining ([4]; T = 0): 98.2%; Moisture % K.F. [5]: 0.61%"
